Reference: the supplement of paper PMC10307832

Key:
Experiment in all cases: relative viability (nuclei count vs DMSO), 5 days (fraction); higher = more cells survive
[1] = compound: CCN(CCO)CCCC(C)Nc1ccnc2cc(Cl)ccc12 [Hydroxychloroquine] + CC1(C)CCC(c2ccc(Cl)cc2)=C(CN2CCN(c3ccc(C(=O)NS(=O)(=O)c4ccc(N[C@H](CCN5CCOCC5)CSc5ccccc5)c(S(=O)(=O)C(F)(F)F)c4)cc3)CC2)C1 [Navitoclax] (partner 0.5 µM)
Summary of the method: (§1)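 Lung cancer cell lines were pin-tool dosed in 1536-well plates on the day after seeding, with either a lone drug or a fixed anchor-drug dose plus five library-drug doses (not always all listed) in √10 steps. Nuclei were counted on 4× images after 5 days. Relative viability is the ratio of treated-well to vehicle-well nuclei counts, with each value a median of duplicate plates.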

[2] = compound: CCN(CCO)CCCC(C)Nc1ccnc2cc(Cl)ccc12 [Hydroxychloroquine] + C[C@]1(O)C[C@@H](c2nc(-c3ccc4ccc(-c5ccccc5)nc4c3)c3c(N)nccn32)C1 [Linsitinib] (partner 1 µM)
Summary of the method: as §1

[3] = compound: CCN(CCO)CCCC(C)Nc1ccnc2cc(Cl)ccc12 [Hydroxychloroquine] + Cc1nc(NC(=O)N2CCC[C@H]2C(N)=O)sc1-c1ccnc(C(C)(C)C(F)(F)F)c1 [Alpelisib] (partner 2 µM)
Summary of the method: as §1

[4] = compound: CCN(CCO)CCCC(C)Nc1ccnc2cc(Cl)ccc12 [Hydroxychloroquine] + O=C(CCCCCCC(=O)Nc1ccccc1)NO [Vorinostat] (partner 1 µM)
Summary of the method: as §1

H3255
relative viability ([1]; first compound 0.5 µM): 0.56 | relative viability ([1]; first compound 1.581 µM): 0.422 | relative viability ([1]; first compound 5 µM): 0.546 | relative viability ([1]; first compound 15.81 µM): 0.522 | relative viability ([1]; first compound 50 µM): 0.635 | relative viability ([2]; first compound 0.5 µM): 0.946 | relative viability ([2]; first compound 1.581 µM): 0.999 | relative viability ([2]; first compound 5 µM): 0.976 | relative viability ([2]; first compound 15.81 µM): 0.944 | relative viability ([2]; first compound 50 µM): 0.982 | relative viability ([3]; first compound 0.5 µM): 0.759 | relative viability ([3]; first compound 1.581 µM): 0.612 | relative viability ([3]; first compound 5 µM): 0.727 | relative viability ([3]; first compound 15.81 µM): 0.675 | relative viability ([3]; first compound 50 µM): 0.72 | relative viability ([4]; first compound 0.5 µM): 0.741 | relative viability ([4]; first compound 1.581 µM): 0.715 | relative viability ([4]; first compound 5 µM): 0.716 | relative viability ([4]; first compound 15.81 µM): 0.858 | relative viability ([4]; first compound 50 µM): 0.762

LOU-NH91
relative viability ([1]; first compound 0.5 µM): 0.679 | relative viability ([1]; first compound 1.581 µM): 0.543 | relative viability ([1]; first compound 5 µM): 0.742 | relative viability ([1]; first compound 15.81 µM): 0.676 | relative viability ([1]; first compound 50 µM): 0.826 | relative viability ([2]; first compound 0.5 µM): 0.907 | relative viability ([2]; first compound 1.581 µM): 0.811 | relative viability ([2]; first compound 5 µM): 0.981 | relative viability ([2]; first compound 15.81 µM): 0.937 | relative viability ([2]; first compound 50 µM): 0.946 | relative viability ([3]; first compound 0.5 µM): 0.697 | relative viability ([3]; first compound 1.581 µM): 0.617 | relative viability ([3]; first compound 5 µM): 0.741 | relative viability ([3]; first compound 15.81 µM): 0.745 | relative viability ([3]; first compound 50 µM): 0.758 | relative viability ([4]; first compound 0.5 µM): 0.89 | relative viability ([4]; first compound 1.581 µM): 0.72 | relative viability ([4]; first compound 5 µM): 0.88 | relative viability ([4]; first compound 15.81 µM): 0.933 | relative viability ([4]; first compound 50 µM): 0.868

NCI-H3122
relative viability ([1]; first compound 0.5 µM): 1.03 | relative viability ([1]; first compound 1.581 µM): 0.994 | relative viability ([1]; first compound 5 µM): 1.01 | relative viability ([1]; first compound 15.81 µM): 1.04 | relative viability ([1]; first compound 50 µM): 1.03 | relative viability ([2]; first compound 0.5 µM): 1.05 | relative viability ([2]; first compound 1.581 µM): 1 | relative viability ([2]; first compound 5 µM): 0.953 | relative viability ([2]; first compound 15.81 µM): 1.05 | relative viability ([2]; first compound 50 µM): 1.07 | relative viability ([3]; first compound 0.5 µM): 0.798 | relative viability ([3]; first compound 1.581 µM): 0.736 | relative viability ([3]; first compound 5 µM): 0.822 | relative viability ([3]; first compound 15.81 µM): 0.779 | relative viability ([3]; first compound 50 µM): 0.8 | relative viability ([4]; first compound 0.5 µM): 1.04 | relative viability ([4]; first compound 1.581 µM): 1.13 | relative viability ([4]; first compound 5 µM): 1.03 | relative viability ([4]; first compound 15.81 µM): 1.06 | relative viability ([4]; first compound 50 µM): 1.19

RERF-LC-KJ
relative viability ([1]; first compound 0.5 µM): 0.894 | relative viability ([1]; first compound 1.581 µM): 0.983 | relative viability ([1]; first compound 5 µM): 0.93 | relative viability ([1]; first compound 15.81 µM): 0.934 | relative viability ([1]; first compound 50 µM): 0.749 | relative viability ([2]; first compound 0.5 µM): 0.896 | relative viability ([2]; first compound 1.581 µM): 0.885 | relative viability ([2]; first compound 5 µM): 0.911 | relative viability ([2]; first compound 15.81 µM): 0.854 | relative viability ([2]; first compound 50 µM): 0.822 | relative viability ([3]; first compound 0.5 µM): 0.778 | relative viability ([3]; first compound 1.581 µM): 0.697 | relative viability ([3]; first compound 5 µM): 0.732 | relative viability ([3]; first compound 15.81 µM): 0.879 | relative viability ([3]; first compound 50 µM): 0.852 | relative viability ([4]; first compound 0.5 µM): 0.696 | relative viability ([4]; first compound 1.581 µM): 0.607 | relative viability ([4]; first compound 5 µM): 0.631 | relative viability ([4]; first compound 15.81 µM): 0.692 | relative viability ([4]; first compound 50 µM): 0.677

NCI-H1651
relative viability ([1]; first compound 0.5 µM): 0.927 | relative viability ([1]; first compound 1.581 µM): 1.05 | relative viability ([1]; first compound 5 µM): 1.12 | relative viability ([1]; first compound 15.81 µM): 1.07 | relative viability ([1]; first compound 50 µM): 1.01 | relative viability ([2]; first compound 0.5 µM): 0.909 | relative viability ([2]; first compound 1.581 µM): 1.1 | relative viability ([2]; first compound 5 µM): 0.975 | relative viability ([2]; first compound 15.81 µM): 1.14 | relative viability ([2]; first compound 50 µM): 0.963 | relative viability ([3]; first compound 0.5 µM): 0.963 | relative viability ([3]; first compound 1.581 µM): 0.926 | relative viability ([3]; first compound 5 µM): 1.05 | relative viability ([3]; first compound 15.81 µM): 1.04 | relative viability ([3]; first compound 50 µM): 0.989 | relative viability ([4]; first compound 0.5 µM): 0.582 | relative viability ([4]; first compound 1.581 µM): 0.589 | relative viability ([4]; first compound 5 µM): 0.583 | relative viability ([4]; first compound 15.81 µM): 0.579 | relative viability ([4]; first compound 50 µM): 0.493

NCI-H2087
relative viability ([1]; first compound 0.5 µM): 0.972 | relative viability ([1]; first compound 1.581 µM): 0.938 | relative viability ([1]; first compound 5 µM): 1.04 | relative viability ([1]; first compound 15.81 µM): 1.16 | relative viability ([1]; first compound 50 µM): 1.04 | relative viability ([2]; first compound 0.5 µM): 1.01 | relative viability ([2]; first compound 1.581 µM): 0.887 | relative viability ([2]; first compound 5 µM): 0.893 | relative viability ([2]; first compound 15.81 µM): 0.951 | relative viability ([2]; first compound 50 µM): 0.965 | relative viability ([3]; first compound 0.5 µM): 1.03 | relative viability ([3]; first compound 1.581 µM): 1.06 | relative viability ([3]; first compound 5 µM): 0.87 | relative viability ([3]; first compound 15.81 µM): 1.08 | relative viability ([3]; first compound 50 µM): 1.02 | relative viability ([4]; first compound 0.5 µM): 0.719 | relative viability ([4]; first compound 1.581 µM): 0.74 | relative viability ([4]; first compound 5 µM): 0.778 | relative viability ([4]; first compound 15.81 µM): 0.798 | relative viability ([4]; first compound 50 µM): 0.609
